Like-named read-outs stand apart in the source and are kept apart here.
What was measured:
[1] = target: SARS-CoV-2 3CLpro (Severe acute respiratory syndrome coronavirus 2, UniProt P0DTD1); test: biochemical; conditions: inhibition of SARS-CoV-2 3CLpro; 15 nM 3CLpro, 25 μM fluorogenic substrate, 37° C.; read-out: Inhibitory Activity (IC50)
[2] = system: SARS-CoV-2; test: Anti-SARS-CoV-2 activity in A549 cells expressing the human ACE2 receptor (inhibition of SARS-CoV-2 replication); format: cell-based; conditions: for EC50: read-out: Antiviral Activity (EC50)
[3] = Severe acute respiratory syndrome coronavirus 2, A549-ACE2, 24 h

Compound | IC50 [1] | EC50 [2, 3] | EC50 ([2]; inhibition of SARS-CoV-2 replication in mammalian cells, A549-ACE2 cells, 24 hours infection) | antiviral potency in A549 cells in comparison with compound Ref-2 ([2]; A549 cells, versus Ref-2 (FIG. 7))
CNC(=O)c1cc(Br)cc([N+](=O)[O-])c1NC(C(C)C)C1CN(C(=O)c2cncc3ccccc23)C1 (stereo in doubt) [Compound 12, (S)-5-bromo-2-((1-(1-(isoquinoline-4-carbonyl)azetidin-3-yl)-2-methylpropyl)amino)-N-methyl-3-nitrobenzamide] | < 0.1 µM | < 0.1 µM |  | 
O=C(NC1CCOC1)c1cc(Cl)cc([N+](=O)[O-])c1N[C@H]1CN(C(=O)c2cncc3ccccc23)CCC1(F)F (stereo in doubt) [Compound 159, 5-chloro-2-(((S)-4,4-difluoro-1-(isoquinoline-4-carbonyl)piperidin-3-yl)amino)-3-nitro-N-((S)-tetrahydrofuran-3-yl)benzamide] |  |  | < 0.1 µM | 
CNC(=O)c1cc(Br)cc([N+](=O)[O-])c1N[C@@H]1CCCC[C@@H]1NC(=O)c1cccnc1 [Compound 1, N-((1S, 2R)-2-((4-bromo-2-(methylcarbamoyl)-6-nitrophenyl)amino)cyclohexyl)nicotinamide] | 0.1 to 1 µM | 1 to 10 µM |  | 
CNC(=O)c1cc(Br)cc([N+](=O)[O-])c1N[C@@H]1CCCC[C@@H]1NC(=O)C[C@@H]1CCNC1=O [Compound 7, 5-bromo-N-methyl-3-nitro-2-(((1R, 2S)-2-(2-((S)-2-oxopyrrolidin-3-yl)acetamido)cyclohexyl)amino)benzamide] | 1 to 10 µM | > 10 µM |  | 
CNC(=O)c1cc(Br)cc([N+](=O)[O-])c1N[C@@H]1CCCC[C@@H]1NC(=O)c1cncc2cc(F)ccc12 [Compound 8, N-((1S, 2R)-2-((4-bromo-2-(methylcarbamoyl)-6-nitrophenyl)amino)cyclohexyl)-7-fluoroisoquinoline-4-carboxamide] | < 0.1 µM | 0.1 to 1 µM |  | 
CNC(=O)c1cc(Br)cc([N+](=O)[O-])c1N[C@@H]1CCCC[C@@H]1NC(=O)c1cncc2ccc(F)cc12 [Compound 9, N-((1S, 2R)-2-((4-bromo-2-(methylcarbamoyl)-6-nitrophenyl)amino)cyclohexyl)-6-fluoroisoquinoline-4-carboxamide] | < 0.1 µM | 0.1 to 1 µM |  | 
CNC(=O)c1cc(Br)cc([N+](=O)[O-])c1NC1CC2(C1)CN(C(=O)c1cncc3ccccc13)C2 [Compound 13, 5-bromo-2-((2-(isoquinoline-4-carbonyl)-2-azaspiro[3.3]heptan-6-yl)amino)-N-methyl-3-nitrobenzamide] | ≥ 10 µM | > 10 µM |  | 
O=C(N[C@H]1CCCC[C@H]1Nc1c(C(=O)N2CC(F)(F)C2)cc(Br)cc1[N+](=O)[O-])c1cncc2ccccc12 [Compound 14, N-((1S, 2R)-2-((4-bromo-2-(3,3-difluoroazetidine-1-carbonyl)-6-nitrophenyl)amino)cyclohexyl)isoquinoline-4-carboxamide] | 0.1 to 1 µM | 0.1 to 1 µM |  | 
O=C(NC1(C(F)(F)F)CC1)c1cc(Br)cc([N+](=O)[O-])c1N[C@@H]1CCCC[C@@H]1NC(=O)c1cncc2ccccc12 [Compound 16, N-((1S, 2R)-2-((4-bromo-2-nitro-6-((1-(trifluoromethyl)cyclopropyl)carbamoyl)phenyl)amino)cyclohexyl)isoquinoline-4-carboxamide] | 0.1 to 1 µM | 1 to 10 µM |  | 
CNC(=O)c1cc(Br)cc([N+](=O)[O-])c1NC1CN(C(=O)c2cncc3ccccc23)CC1(F)F (centres unmarked) [Compound 18, 5-bromo-2-((4,4-difluoro-1-(isoquinoline-4-carbonyl)pyrrolidin-3-yl)amino)-N-methyl-3-nitrobenzamide] | 0.1 to 1 µM | 0.1 to 1 µM |  | 
O=C(NC1CC(F)(F)C1)c1cc(Br)cc([N+](=O)[O-])c1N1CCC2(CCN(C(=O)c3cncc4ccccc34)C2)C1 (centres unmarked) [Compound 26, 5-bromo-N-(3,3-difluorocyclobutyl)-2-(7-(isoquinoline-4-carbonyl)-2,7-diazaspiro[4.4]nonan-2-yl)-3-nitrobenzamide] | < 0.1 µM | 0.1 to 1 µM |  | 
O=C(NC1CC(F)(F)C1)c1cc(Br)cc([N+](=O)[O-])c1N1CCC2(CN(C(=O)c3cncc4ccccc34)CC2(F)F)C1 (centres unmarked) [Compound 27, 5-bromo-2-(9,9-difluoro-7-(isoquinoline-4-carbonyl)-2,7-diazaspiro[4. 4]nonan-2-yl)-N-(3,3-difluorocyclobutyl)-3-nitrobenzamide] | < 0.1 µM | 0.1 to 1 µM |  | 
O=C(NC1CC(F)(F)C1)c1cc(Cl)cc([N+](=O)[O-])c1N[C@@H]1COCC[C@@H]1NC(=O)c1cncc2ccccc12 [Compound 29, N-((3S, 4S)-3-((4-chloro-2-((3,3-difluorocyclobutyl)carbamoyl)-6-nitrophenyl)amino)tetrahydro-2H-pyran-4-yl)isoquinoline-4-carboxamide] | < 0.1 µM | < 0.1 µM |  | better antiviral potency
O=C(NC1CC(F)(F)C1)c1cc(Br)cc([N+](=O)[O-])c1N[C@H]1CN(C(=O)c2cncc3ccccc23)CCC1(F)F [Compound 33, (S)-5-bromo-2-((4,4-difluoro-1-(isoquinoline-4-carbonyl)piperidin-3-yl)amino)-N-(3,3-difluorocyclobutyl)-3-nitrobenzamide] | < 0.1 µM | < 0.1 µM |  | 
O=C(NC1CC(F)(F)C1)c1cc(Br)cc([N+](=O)[O-])c1N[C@@H]1CCCN(C(=O)c2cncc3ccccc23)C1 [Compound 34, (R)-5-bromo-N-(3,3-difluorocyclobutyl)-2-((1-(isoquinoline-4-carbonyl)piperidin-3-yl)amino)-3-nitrobenzamide] | < 0.1 µM | < 0.1 µM |  | 
CNC(=O)c1cc(Br)cc(C(F)(F)F)c1N[C@H]1CN(C(=O)c2cncc3ccccc23)CCC1(F)F [Compound 35, (S)-5-bromo-2-((4,4-difluoro-1-(isoquinoline-4-carbonyl)piperidin-3-yl)amino)-N-methyl-3-(trifluoromethyl)benzamide] | < 0.1 µM | < 0.1 µM |  | 
COC1CN(C(=O)c2cc(Br)cc(C(F)(F)F)c2N[C@H]2CN(C(=O)c3cncc4ccccc34)CCC2(F)F)C1 [Compound 172, (S)-(5-bromo-2-((4,4-difluoro-1-(isoquinoline-4-carbonyl)piperidin-3-yl)amino)-3-(trifluoromethyl)phenyl)(3-methoxyazetidin-1-yl)methanone] | < 0.1 µM |  |  | 
O=C(c1cc(Br)cc(C(F)(F)F)c1N[C@H]1CN(C(=O)c2cncc3ccccc23)CCC1(F)F)N1CC(O)C1 [Compound 173, (S)-(5-bromo-2-((4,4-difluoro-1-(isoquinoline-4-carbonyl)piperidin-3-yl)amino)-3-(trifluoromethyl)phenyl)(3-hydroxyazetidin-1-yl)methanone] | < 0.1 µM |  |  | 
CNC(=O)c1cc(Cl)cc([N+](=O)[O-])c1N[C@H]1CN(C(=O)c2cncc3cccc(O)c23)CCC1(F)F [Compound 174, (S)-5-chloro-2-((4,4-difluoro-1-(5-hydroxyisoquinoline-4-carbonyl)piperidin-3-yl)amino)-N-methyl-3-nitrobenzamide] | < 0.1 µM |  |  | 
CNC(=O)c1cc(Cl)cc([N+](=O)[O-])c1N[C@H]1CN(C(=O)c2cncc3cnccc23)CCC1(F)F [Compound 175, (S)-5-chloro-2-((4,4-difluoro-1-(2,7-naphthyridine-4-carbonyl)piperidin-3-yl)amino)-N-methyl-3-nitrobenzamide] | < 0.1 µM |  |  | 
CNC(=O)c1cc(Cl)cc([N+](=O)[O-])c1N[C@H]1CN(C(=O)c2cncc3ncccc23)CCC1(F)F [Compound 176, (S)-5-chloro-2-((4,4-difluoro-1-(1,7-naphthyridine-5-carbonyl)piperidin-3-yl)amino)-N-methyl-3-nitrobenzamide] | < 0.1 µM |  |  | 
CN(C)C(=O)c1cc(Cl)cc([N+](=O)[O-])c1N[C@H]1CN(C(=O)c2cncc3ccccc23)CC[C@@H]1F [Compound 177] | < 0.1 µM |  |  | 
CNC(=O)c1cc(Cl)cc([N+](=O)[O-])c1N[C@H]1CN(C(=O)c2cncc3ccn(C)c23)CC[C@@H]1F [Compound 178, 5-chloro-2-(((3S, 4S)-4-fluoro-1-(1-methyl-1H-pyrrolo[3,2-c]pyridine-7-carbonyl)piperidin-3-yl)amino)-N-methyl-3-nitrobenzamide] | < 0.1 µM |  |  | 
CNC(=O)c1cc(Br)cc([N+](=O)[O-])c1O[C@@H]1CN(C(=O)c2cncc3ccccc23)CCC1(F)F [Compound 179, (R)-5-bromo-2-((4,4-difluoro-1-(isoquinoline-4-carbonyl)piperidin-3-yl)oxy)-N-methyl-3-nitrobenzamide] | 0.1 to 1 µM |  |  | 
CNC(=O)c1cc(Br)cc([N+](=O)[O-])c1O[C@H]1CN(C(=O)c2cncc3ccccc23)CCC1(F)F [Compound 180, (S)-5-bromo-2-((4,4-difluoro-1-(isoquinoline-4-carbonyl)piperidin-3-yl)oxy)-N-methyl-3-nitrobenzamide] | ≥ 10 µM |  |  | 
CNC(=O)c1cc(Br)cc(C(F)(F)F)c1N[C@H]1CN(C(=O)c2cncc3ccccc23)CC[C@H]1F [Compound 181, 5-bromo-2-(((3S,4R)-4-fluoro-1-(isoquinoline-4-carbonyl)piperidin-3-yl)amino)-N-methyl-3-(trifluoromethyl)benzamide] | < 0.1 µM |  |  | 
O=C(N[C@@H]1CCOC1)c1cc(Br)cc(C(F)(F)F)c1N[C@H]1CN(C(=O)c2cncc3ccccc23)CCC1(F)F [Compound 182, 5-bromo-2-(((S)-4,4-difluoro-1-(isoquinoline-4-carbonyl)piperidin-3-yl)amino)-N-((R)-tetrahydrofuran-3-yl)-3-(trifluoromethyl)benzamide] | < 0.1 µM |  |  | 
CNC(=O)c1cc(Br)cc(C(F)(F)F)c1N[C@H]1CN(C(=O)c2cncc3ccccc23)CC[C@@H]1F [Compound 183, 5-bromo-2-(((3S, 4S)-4-fluoro-1-(isoquinoline-4-carbonyl)piperidin-3-yl)amino)-N-methyl-3-(trifluoromethyl)benzamide] | < 0.1 µM |  |  | 
